Assay [1] has as its target T1, biotinylated wild-type menin and MLL-AF9 fusion protein (menin/MLL binding) (Homo sapiens, UniProt O00255).
T1 construct: made in house; host or cells: menin: E. coli; MLL-AF9-FLAG: HEK293 cells, used as cleared lysate
T1 sequence (O00255 1-610): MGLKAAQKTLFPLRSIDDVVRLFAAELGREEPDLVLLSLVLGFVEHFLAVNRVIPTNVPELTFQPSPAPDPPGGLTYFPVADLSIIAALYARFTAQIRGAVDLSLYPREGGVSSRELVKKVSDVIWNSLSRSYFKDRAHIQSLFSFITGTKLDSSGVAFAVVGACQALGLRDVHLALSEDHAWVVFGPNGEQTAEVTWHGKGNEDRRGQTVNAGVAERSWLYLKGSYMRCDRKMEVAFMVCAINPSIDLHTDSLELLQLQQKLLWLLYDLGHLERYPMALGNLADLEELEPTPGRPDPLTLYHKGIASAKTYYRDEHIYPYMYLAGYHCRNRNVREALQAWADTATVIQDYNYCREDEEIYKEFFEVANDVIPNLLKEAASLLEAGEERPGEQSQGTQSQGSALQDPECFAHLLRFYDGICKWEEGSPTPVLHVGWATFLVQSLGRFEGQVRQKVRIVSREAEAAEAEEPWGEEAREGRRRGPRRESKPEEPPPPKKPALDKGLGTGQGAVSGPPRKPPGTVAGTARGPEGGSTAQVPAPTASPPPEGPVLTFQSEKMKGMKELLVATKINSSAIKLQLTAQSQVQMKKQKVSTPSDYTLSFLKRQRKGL
Description: Assay 1: menin/MLL binding AlphaLISA assay, wild-type menin. The conditions noted are these: Table 30; column head does not say wild-type or mutated menin. The essentials:
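Compound was preincubated 30 min at room temperature with biotinylated menin (5 nM) and MLL-AF9-FLAG lysate from HEK293 cells, pH 7.4 buffer with 5% DMSO and DTT. Bead-based Alpha signal after 60 min with streptavidin donor and anti-FLAG acceptor beads; four-parameter logistic fit gave IC50.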

For assay [2], the system named is human acute monocytic leukemia cell line MV-4-11. Nature of the assay: Assay 2: cell proliferation assay (ATP quantitation, CellTiter-Glo), MV-4-11. To be noted: MV-4-11 cells. Format: cell-based. The essentials: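 Read-out is CellTiter-Glo luminescence quantifying ATP. Compound exposure lasted 72 h at 37° C., 5% CO2, with 1.67×10^4 MV-4-11 cells per well in 10% FBS medium, alongside HL-60 toxicity-control cells.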

For `N#Cc1ccc(-c2cc(F)ccc2Oc2cncnc2N2CC3(CN(CC4(O)CCOCC4)C3)C2)c(C2CC2)c1` [Example 214, 2-cyclopropyl-5′-fluoro-2′-((4-(6-((4-hydroxytetrahydro-2H-pyran-4-yl)methyl)-2,6-diazaspiro[3.3]heptan-2-yl)pyrimidin-5-yl)oxy)-[1,1′-biphenyl]-4-carbonitrile], the IC50 in assay [1] was below 100 nM. This compound also had an EC50 in assay [2] (Homo sapiens, MV4-11, 72 h) of 100 to 1000 nM.
In the case of `N#Cc1ccc(-c2cc(F)ccc2Oc2cncnc2N2CC3(CN(CC4CCOCC4)C3)C2)c(C2CC2)c1` [Example 215, 2-cyclopropyl-5′-fluoro-2′-((4-(6-((tetrahydro-2H-pyran-4-yl)methyl)-2,6-diazaspiro[3.3]heptan-2-yl)pyrimidin-5-yl)oxy)-[1,1′-biphenyl]-4-carbonitrile], the IC50 in assay [1] is below 100 nM. In assay [2] (Homo sapiens, MV4-11, 72 h), the EC50 was 100 to 1000 nM.
For the compound `CC(C)n1nc(C(F)(F)F)cc1-c1cc(F)ccc1Oc1cncnc1N1CCC2(CCN(Cc3ccc4[nH]c(=O)[nH]c4c3)C2)C1` (stereo not shown) [Example 217, 5-((7-(5-(4-fluoro-2-(1-isopropyl-3-(trifluoromethyl)-1H-pyrazol-5-yl)phenoxy)pyrimidin-4-yl)-2,7-diazaspiro[4.4]nonan-2-yl)methyl)-1,3-dihydro-2H-benzo[d]imidazol-2-one], the IC50 in assay [1] was below 100 nM. The same compound showed an EC50 in assay [2] (Homo sapiens, MV4-11, 72 h) below 100 nM.
In assay [1], `CC(C)C1CCC(=O)N1c1cc(F)ccc1Oc1cncnc1N1CCC2(CCN(Cc3ccc4[nH]c(=O)[nH]c4c3)C2)C1` (stereo not shown) [Example 218, 5-((7-(5-(4-fluoro-2-(2-isopropyl-5-oxopyrrolidin-1-yl)phenoxy)pyrimidin-4-yl)-2,7-diazaspiro[4.4]nonan-2-yl)methyl)-1,3-dihydro-2H-benzo[d]imidazol-2-one] registered an IC50 below 100 nM. In assay [2] (Homo sapiens, MV4-11, 72 h), this compound came in with an EC50 of at least 1000 nM.
On to `CC(C)c1ccccc1-c1cc(F)ccc1Oc1cncnc1N1CCC2(CCN(C[C@H]3CC[C@H](N)CC3)C2)C1` (stereo partly shown) [Example 219, (1r,4r)-4-((7-(5-((5-fluoro-2′-isopropyl-[1,1′-biphenyl]-2-yl)oxy)pyrimidin-4-yl)-2,7-diazaspiro[4.4]nonan-2-yl)methyl)cyclo-hexan-1-amine], for which the IC50 in assay [1] is below 100 nM. In assay [2] (Homo sapiens, MV4-11, 72 h), the EC50 lay within 100 to 1000 nM.
The compound `CC(C)c1ccccc1-c1cc(F)ccc1Oc1cncnc1N1CCC2(CCN(C[C@H]3CC[C@H](NC(=O)OC(C)(C)C)CC3)C2)C1` (stereo partly shown) [Example 220, tert-butyl ((1r,4r)-4-((7-(5-((5-fluoro-2′-isopropyl-[1,1′-biphenyl]-2-yl)oxy)pyrimidin-4-yl)-2,7-diazaspiro[4.4]nonan-2-yl)methyl)cyclohexyl) carbamate] showed an IC50 in assay [1] below 100 nM. The compound also returned an EC50 in assay [2] (Homo sapiens, MV4-11, 72 h) of 100 to 1000 nM.
In turn, `CC(=O)Nc1ccc(CN2CCC3(CCN(c4ncncc4Oc4ccc(F)cc4-c4ccccc4C(C)C)C3)C2)cc1` (stereo not shown) [Example 221, N-(4-((7-(5-((5-fluoro-2′-isopropyl-[1,1′-biphenyl]-2-yl)oxy)pyrimidin-4-yl)-2,7-diazaspiro[4.4]nonan-2-yl)methyl)phenyl) acetamide] displayed an IC50 in assay [1] below 100 nM. In addition, the 50% effective concentration (EC50) in assay [2] (Homo sapiens, MV4-11, 72 h) lay within 100 to 1000 nM.
Compound `CC(C)N(C)S(=O)(=O)c1cc(F)ccc1Oc1cncnc1N1CCC2(CCN(Cc3ccc4[nH]c(=O)[nH]c4c3)C2)C1` (stereo not shown) [Example 222, 5-fluoro-N-isopropyl-N-methyl-2-((4-(7-((2-oxo-2,3-dihydro-1H-benzo[d]imidazol-5-yl)methyl)-2,7-diazaspiro[4.4]nonan-2-yl)pyrimidin-5-yl)oxy)benzenesulfon-amide] had an IC50 in assay [1] below 100 nM. In assay [2] (Homo sapiens, MV4-11, 72 h), this compound registered an EC50 of at least 1000 nM.
Take `CCOC(=O)c1ccccc1-c1cc(F)ccc1Oc1cncnc1N1CCC2(CCN(Cc3ccc4[nH]c(=O)[nH]c4c3)C2)C1` (stereo not shown) [Example 223, ethyl 5′-fluoro-2′-((4-(7-((2-oxo-2,3-dihydro-1H-benzo[d]imidazol-5-yl)methyl)-2,7-diazaspiro[4.4]nonan-2-yl)pyrimidin-5-yl)oxy)-[1,1′-biphenyl]-2-carboxylate]: the IC50 in assay [1] is below 100 nM. The compound also yielded an EC50 in assay [2] (Homo sapiens, MV4-11, 72 h) of 100 to 1000 nM.
`CC(C)c1ncsc1-c1cc(F)ccc1Oc1cncnc1N1CCC2(CCN(Cc3ccc4[nH]c(=O)[nH]c4c3)C2)C1` (stereo not shown) [Example 224, 5-((7-(5-(4-fluoro-2-(4-isopropylthiazol-5-yl)phenoxy)pyrimidin-4-yl)-2,7-diazaspiro[4.4]nonan-2-yl)methyl)-1,3-dihydro-2H-benzo[d]imidazol-2-one]: the IC50 in assay [1] was below 100 nM. Also, the EC50 in assay [2] (Homo sapiens, MV4-11, 72 h) was below 100 nM.
In assay [1], `CC(C)N(C)C(=O)c1cc(F)ccc1Oc1cncnc1N1CC2(CN(CC3CCOCC3)C2)C1` [Example 225, 5-fluoro-N-isopropyl-N-methyl-2-((4-(6-((tetrahydro-2H-pyran-4-yl)methyl)-2,6-diazaspiro[3.3]heptan-2-yl)pyrimidin-5-yl)oxy)benzamide] had a concentration for half-maximal inhibition (IC50) below 100 nM. Besides, the EC50 in assay [2] (Homo sapiens, MV4-11, 72 h) lay in the range of 100 to 1000 nM.
Regarding `Cc1cc(C#N)ccc1-c1cc(F)ccc1Oc1cncnc1N1CCC2(CCN(Cc3ccc4[nH]c(=O)[nH]c4c3)C2)C1` (stereo not shown) [Example 226, 5′-fluoro-2-methyl-2′-((4-(7-((2-oxo-2,3-dihydro-1H-benzo[d]imidazol-5-yl)methyl)-2,7-diazaspiro[4.4]nonan-2-yl)pyrimidin-5-yl)oxy)-[1,1′-biphenyl]-4-carbonitrile], the IC50 in assay [1] is below 100 nM. In addition, the EC50 in assay [2] (72 h) is at least 1000 nM.
In turn, `CC(C)c1ncncc1-c1cc(F)ccc1Oc1cncnc1N1CC2(CN(C(=O)Cc3ccc(C#N)cc3)C2)C1` [Example 227, 4-(2-(6-(5-(4-fluoro-2-(4-isopropylpyrimidin-5-yl)phenoxy)pyrimidin-4-yl)-2,6-diazaspiro[3.3]heptan-2-yl)-2-oxoethyl)benzonitrile] displayed an IC50 in assay [1] below 100 nM. For the same compound, the EC50 in assay [2] (Homo sapiens, MV4-11, 72 h) was below 100 nM.
For the compound `CC(C)c1ccccc1-c1cc(F)ccc1Oc1cncnc1N1CC2(CN(C(=O)Cc3ccc(C#N)cc3)C2)C1` [Example 228, 4-(2-(6-(5-((5-fluoro-2′-isopropyl-[1,1′-biphenyl]-2-yl)oxy)pyrimidin-4-yl)-2,6-diazaspiro[3.3]heptan-2-yl)-2-oxoethyl)benzonitrile], the IC50 in assay [1] was below 100 nM. The compound also displayed an EC50 in assay [2] (Homo sapiens, MV4-11, 72 h) of 100 to 1000 nM.
The corresponding values for `CC(C)c1ccccc1-c1cc(F)ccc1Oc1cncnc1N1CC2(CN(C(=O)Cc3ccc(S(C)(=O)=O)cc3)C2)C1` [Example 229, 1-(6-(5-((5-fluoro-2′-isopropyl-[1,1′-biphenyl]-2-yl)oxy)pyrimidin-4-yl)-2,6-diazaspiro[3.3]heptan-2-yl)-2-(4-(methylsulfonyl)phenyl)ethan-1-one] are below 100 nM and 100 to 1000 nM.
The compound `Cc1c(C#N)cccc1-c1cc(F)ccc1Oc1cncnc1N1CCC2(CCN(Cc3ccc4[nH]c(=O)[nH]c4c3)C2)C1` (stereo not shown) [Example 230, 5′-fluoro-2-methyl-2′-((4-(7-((2-oxo-2,3-dihydro-1H-benzo[d]imidazol-5-yl)methyl)-2,7-diazaspiro[4.4]nonan-2-yl)pyrimidin-5-yl)oxy)-[1,1′-biphenyl]-3-carbonitrile] had an IC50 in assay [1] below 100 nM. Besides, in assay [2] (Homo sapiens, MV4-11, 72 h), the EC50 lay within 100 to 1000 nM.
On to `CC(C)n1nccc1-c1cc(F)ccc1Oc1cncnc1N1CC2(CN(CC3CCCC(F)(F)C3)C2)C1` (stereo not shown) [Example 231, 2-((3,3-difluorocyclohexyl)methyl)-6-(5-(4-fluoro-2-(1-isopropyl-1H-pyrazol-5-yl)phenoxy)pyrimidin-4-yl)-2,6-diazaspiro[3.3] heptane], for which the IC50 in assay [1] was below 100 nM. For the same compound, in assay [2] (Homo sapiens, MV4-11, 72 h), the EC50 was in the range of 100 to 1000 nM.
Consider `CC(C)c1ncncc1-c1cc(F)ccc1Oc1cncnc1N1CC2(CN(CC3CCCC(F)(F)C3)C2)C1` (stereo not shown) [Example 232, 2-((3,3-difluorocyclohexyl)methyl)-6-(5-(4-fluoro-2-(4-isopropylpyrimidin-5-yl)phenoxy)pyrimidin-4-yl)-2,6-diazaspiro[3.3] heptane], for which the IC50 in assay [1] is below 100 nM. Moreover, in assay [2] (Homo sapiens, MV4-11, 72 h), the EC50 was below 100 nM.
In turn, `CC(C)n1nccc1-c1cc(F)ccc1Oc1cncnc1N1CC2(CC(NCc3ccc(C#N)cc3)CO2)C1` (stereo not shown) [Example 233, 4-(((2-(5-(4-fluoro-2-(1-isopropyl-1H-pyrazol-5-yl)phenoxy)pyrimidin-4-yl)-5-oxa-2-azaspiro[3.4]octan-7-yl)amino)methyl) benzonitrile] registered an IC50 in assay [1] below 100 nM. In assay [2] (Homo sapiens, MV4-11, 72 h), this compound gave an EC50 of 100 to 1000 nM.
In the case of `CCc1ncccc1-c1cc(F)ccc1Oc1cncnc1N1CCC2(CCN(Cc3ccc4[nH]c(=O)[nH]c4c3)C2)C1` (stereo not shown) [Example 234, 5-((7-(5-(2-(2-ethylpyridin-3-yl)-4-fluorophenoxy)pyrimidin-4-yl)-2,7-diazaspiro [4.4]nonan-2-yl)methyl)-1,3-dihydro-2H-benzo[d]imidazol-2-one], the IC50 in assay [1] was below 100 nM. The compound also gave an EC50 in assay [2] (Homo sapiens, MV4-11, 72 h) below 100 nM.
